The text below walks through data of patent US9617310B2 (priority 2013, dated 2017).

The target in one experiment is T1, NS3 genotype 1b protease (Hepatitis C virus genotype 1b, UniProt Q9WMX2, E1202G).
T1 construct: Purified NS3 protease domain (amino acids 1-181) of the genotype 1b and 3a virus were generated as above; K3 hexahistidine tag (N); rTEV protease cleavage site (N); made in house; host or cells: E. coli BL21AI
Put plainly: Ki determination, NS3 protease genotype 1b (fluorogenic depsipeptide substrate). The format is biochemical. The following applies: NS3 protease domain genotype 1b, NS4A peptide. The method in brief:
(§1)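 NS3 protease domain (aa 1-181), 50 pM (1b) or 200 pM (3a), with 20 μM NS4A peptide, pre-incubated 1 h with inhibitor (100 nM–5 pM); 4 μM (1b) or 2 μM (3a) FRET depsipeptide substrate, room temperature, pH-unspecified HEPES buffer with 40% glycerol, 10% DMSO. Steady-state rates at 90–120 min (ex 340/em 490); Morrison fit gave Ki^app, corrected to Ki via substrate/Km.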

The test system of experiment [1] is genotype 1b stable HCV replicon (Con1) in Huh-7-derived cells. Put plainly: Stable subgenomic HCV replicon, genotype 1b, Renilla luciferase. To be noted: Hepatitis C virus, stable replicon genotype 1b, 72 h, read-out: EC50 1B RLUC. The format is cell-based. The method in brief: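 Replicons carry hRLuc-neo, EMCV IRES and NS3-NS5B with adaptive mutations: 1a H77 P1496L/S2204I, 1b Con1 E1202G/T1280I/K1846T, 4a ED43 Q1691R/S2204I. EC50 came from non-linear regression versus DMSO and a triple-inhibitor full-inhibition control.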
For orientation: Replicon systems follow genome replication, usually without infectious particles.

A further experiment has as its target T2, NS3 genotype 3a protease (UniProt Q81258).
T2 construct: Purified NS3 protease domain (amino acids 1-181) of the genotype 1b and 3a virus were generated as above; fused on or other part: N-terminal hexahistidine tag with an rTEV protease cleavage site (vector p28-N6H-Tev-NS3(181)3)
T2 sequence (Q81258 1033-1663): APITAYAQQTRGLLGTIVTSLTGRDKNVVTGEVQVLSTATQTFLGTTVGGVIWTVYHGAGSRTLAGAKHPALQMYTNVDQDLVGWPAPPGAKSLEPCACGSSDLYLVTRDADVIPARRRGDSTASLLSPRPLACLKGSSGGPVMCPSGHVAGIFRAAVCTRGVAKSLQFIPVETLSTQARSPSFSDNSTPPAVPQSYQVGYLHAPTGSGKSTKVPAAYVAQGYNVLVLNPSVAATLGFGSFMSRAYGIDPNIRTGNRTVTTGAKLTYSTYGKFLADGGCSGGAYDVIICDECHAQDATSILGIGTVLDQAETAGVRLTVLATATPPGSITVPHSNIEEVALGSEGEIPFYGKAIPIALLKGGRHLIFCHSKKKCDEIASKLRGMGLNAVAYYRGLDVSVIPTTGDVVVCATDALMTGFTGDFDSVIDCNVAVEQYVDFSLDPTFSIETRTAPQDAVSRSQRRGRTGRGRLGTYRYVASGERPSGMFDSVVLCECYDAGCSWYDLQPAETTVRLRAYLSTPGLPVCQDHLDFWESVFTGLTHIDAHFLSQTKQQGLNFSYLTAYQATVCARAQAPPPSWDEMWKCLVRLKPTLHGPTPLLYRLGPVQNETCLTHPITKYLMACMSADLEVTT
Kind of experiment: Ki determination, NS3 protease genotype 3a (fluorogenic depsipeptide substrate). The format is biochemical, hepatitis C virus. To be noted: NS3 protease domain genotype 3a, NS4A peptide. The method in brief:
as §1

T1 sequence (Q9WMX2 1027-1207 E1202G, other chains not shown): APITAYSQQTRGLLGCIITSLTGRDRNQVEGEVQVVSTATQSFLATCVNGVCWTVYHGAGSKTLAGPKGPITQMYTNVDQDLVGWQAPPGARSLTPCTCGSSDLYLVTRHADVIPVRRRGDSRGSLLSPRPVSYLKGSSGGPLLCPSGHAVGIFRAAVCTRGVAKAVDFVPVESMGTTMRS

In general, Ki refers to a measure of affinity in units of concentration, obtained from inhibition or displacement. Low values mean higher affinity, high ones lower affinity. As a reminder, the EC50 is the concentration needed to bring the measured effect to its halfway point. In the case of `CC(C)(C)[C@@H]1NC(=O)O[C@@H]2C[C@@H]3C[C@@H]3[C@H]2CCCCC(F)(F)c2nc3ccc(OC(F)F)cc3nc2O[C@@H]2C[C@@H](C(=O)N[C@]3(C(=O)NS(=O)(=O)C4CC4)C[C@H]3C(F)F)N(C2)C1=O` [Example 16, (1aS,2aR,6S,9S,11R,23aR,23bS)-6-tert-butyl-N-[(1R,2R)-1-[(cyclopropylsulfonyl)carbamoyl]-2-(difluoromethyl)cyclopropyl]-15-(difluoromethoxy)-19,19-difluoro-4,7-dioxo-1a,2,2a,4,5,6,7,10,11,19,20,21,22,23,23a,23b-hexadecahydro-1H,9H-8,11-methanocyclopropa[4′,5′]cyclopenta [1′,2′:18,19][1,10,3,6]dioxadiazacyclononadecino[11,12-b]quinoxaline-9-carboxamide], the Ki at NS3 genotype 1b protease was 0.03 nM; at NS3 genotype 3a protease, 0.13 nM. Further, the EC50 in experiment [1] came out at 4.2 nM.

In the case of `CC(C)(C)[C@@H]1NC(=O)O[C@@H]2C[C@@H]3C[C@@H]3[C@H]2CCCCC(F)(F)c2nc3ccccc3nc2O[C@@H]2C[C@@H](C(=O)N[C@]3(C(=O)NS(=O)(=O)C4(C)CC4)C[C@H]3C(F)F)N(C2)C1=O` [Example 17], the results for the Ki at NS3 genotype 1b protease and at NS3 genotype 3a protease were 0.01 nM and 0.02 nM, respectively. In experiment [1], the EC50 was found to be 4.7 nM.

Turning to `CC(C)(C)[C@@H]1NC(=O)O[C@@H]2C[C@@H]3C[C@@H]3[C@H]2CCCCC(F)(F)c2nc3ccccc3nc2O[C@@H]2C[C@@H](C(=O)N[C@]3(C(=O)NS(=O)(=O)C4CC4)C[C@H]3C(F)F)N(C2)C1=O` [Example 18], the Ki at NS3 genotype 1b protease stood at 0.01 nM; on NS3 genotype 3a protease, 0.02 nM. In addition, the EC50 in experiment [1] stood at 4.1 nM.

For `CC(C)(C)[C@@H]1NC(=O)O[C@@H]2C[C@@H]3C[C@@H]3[C@H]2CCCCCc2nc3ccc(Cl)cc3nc2O[C@@H]2C[C@@H](C(=O)N[C@]3(C(=O)NS(=O)(=O)C4CC4)C[C@H]3C(F)F)N(C2)C1=O` [Example 19, (1aS,2aR,6S,9S,11R,23aR,23bS)-6-tert-butyl-15-chloro-N-[(1R,2R)-1-[(cyclopropylsulfonyl)carbamoyl]-2-(difluoromethyl)cyclopropyl]-4,7-dioxo-1a,2,2a,4,5,6,7,10,11,19,20,21,22,23,23a, 23b-hexadecahydro-1H,9H-8,11-methanocyclopropa[4′,5′]cyclopenta[1′,2′:18,19][1,10,3,6]dioxadiazacyclononadecino[11,12-b]quinoxaline-9-carboxamide], the Ki worked out at 0.02 nM on NS3 genotype 1b protease and 0.06 nM at NS3 genotype 3a protease. In experiment [1], the EC50 was 1.3 nM.

On to `COc1ccc2nc3c(nc2c1)O[C@@H]1C[C@@H](C(=O)N[C@]2(C(=O)NS(=O)(=O)C4(C)CC4)C[C@H]2CC(F)F)N(C1)C(=O)[C@H](C(C)(C)C)NC(=O)O[C@@H]1C[C@@H]2C[C@@H]2[C@H]1CCCCC3(F)F` [Example 20, (1aS,2aR,6S,9S,11R,23aR,23bS)-6-tert-butyl-N-[(1R,2S)-2-(2,2-difluoroethyl)-1-{[(1-methylcyclopropyl)sulfonyl]carbamoyl}cyclopropyl]-19,19-difluoro-15-methoxy-4,7-dioxo-1a,2,2a,4,5,6,7,10,11,19,20,21,22,23,23a,23b-hexadecahydro-1H,9H-8,11-methanocyclopropa[4′,5′]cyclopenta[1′,2′:18,19][1,10,3,6]dioxadiazacyclononadecino[11,12-b]quinoxaline-9-carboxamide], for which the Ki at NS3 genotype 1b protease is 0.04 nM; at NS3 genotype 3a protease, 0.07 nM. The EC50 in experiment [1] is 5.9 nM.

In the case of `COc1ccc2cc3c(nc2c1)O[C@@H]1C[C@@H](C(=O)N[C@]2(C(=O)NS(=O)(=O)C4CC4)C[C@H]2C(F)F)N(C1)C(=O)[C@H](C(C)(C)C)NC(=O)O[C@@H]1C[C@@H]2C[C@@H]2[C@H]1CCCCC3` [Example 21, (1aS,2aR,6S,9S,11R,23aR,23bS)-6-tert-butyl-N-[(1R,2R)-1-[(cyclopropylsulfonyl)carbamoyl]-2-(difluoromethyl)cyclopropyl]-15-methoxy-4,7-dioxo-1a,2,2a,4,5,6,7,10,11,19,20,21,22,23,23a,23b-hexadecahydro-1H,9H-8,11-methanocyclopropa[4′,5′]cyclopenta[1′,2′:18,19][1,10,3,6]dioxadiazacyclononadecino[11,12-b]quinoline-9-carboxamide], the results for the Ki on NS3 genotype 1b protease and on NS3 genotype 3a protease were 0.02 nM and 0.1 nM, respectively. Also, in experiment [1], the EC50 came out at 0.95 nM.
